# Legend:
# castrated rat = test: Test Example 1-1: male menopausal model rat (castrated, testosterone propionate-supplemented); assay type: in vivo
# Description: As the human menopause model, rats were castrated (orchiectomy). An eight-week-old male rat was subjected to orchiectomy under isoflurane anesthesia, and the castrated rat was orally administered the hot water extract of Cordyceps militaris derived from Samia cynthia ricini (RK: 20 mg/0.2 mL distilled water/rat: average body weight at the start of administration: 317 g) together with testosterone propionate (TP: 1 mg/kg, every other day administration) continuously for 12 days. Animals were sacrificed the day after the final treatment, and then the serum, testes, prostate, and seminal vesicle glands were isolated. Some animals to which 0.2 mL distilled water was administered was used as control group.
# After the blood collection, the concentrations of testosterone and dihydrotestosterone in the serum were evaluated by the following measurement kit.
# The results of the blood testosterone values measured by an EIA kit (manufactured by Cayman) and the results of blood dihydrotestosterone values measured by an ELISA kit (manufactured by Abnova) are shown in FIGS. 1 and 2, respectively.
# After the autopsy, changes in the weight of the prostate and the seminal vesicle were evaluated. The change in the weight of the prostate is shown in FIG. 5, and change in the weight of the seminal vesicle is shown in FIG. 6.
# [1] = system: prostatic hypertrophy model rat; test: Test Example 1-2: prostatic hypertrophy model rat (long-term excessive TP); assay type: in vivo, Wistar rat; settings: TP 3 mg/kg, 1 month
# Description: In a rat model of menopause Test Example 1-1, since the increase in the prostatic weight by testosterone propionate (TP) was inhibited by the hot water extract of Cordyceps militaris derived from Samia cynthia ricini (RK), it was assumed that RK has inhibitory effects on prostatic hypertrophy. The effect of long-term administration of RK was, therefore, examined using a rat model of prostatic hypertrophy in which an excessive amount of TP is administered to mature rats for a long period of time.
# An eight-week-old male Wistar rat was orally administered RK (10 mg/0.2 mL distilled water/rat or 20 mg/0.2 mL distilled water/rat: average body weight at the start of administration: 268 g) together with 3 mg/kg of TP continuously for 1 month. Animals were sacrificed the day after the final treatment, and then the serum, testes, prostate, and seminal vesicle glands were isolated. Some animals to which 0.2 mL distilled water was administered was used as control group.
# After the blood collection, the serum levels of testosterone and dihydrotestosterone value were evaluated by the following measurement kit.
# The results of the blood testosterone values measured by EIA kit (manufactured by Cayman) and the results of dihydrotestosterone values measured by Elisa kit (manufactured by Abnova) are shown in FIGS. 8 and 9, respectively.
# After the necropsy, changes in prostate weight and body weight were evaluated.
# testicular cells = test: Test Example 2: testosterone/dihydrotestosterone production in primary testicular cells; assay type: cell-based, rat; settings: 0.5 mM, 1 h pretreatment, then LH or dibutyryl cAMP, 90 min
# Description: Dispersed testicular cells were prepared from the testis in mature rats. The testicular cells isolated were cultured for 18 hours in DMEM/Ham's F-12 medium (manufactured by FUJIFILM Wako Pure Chemical Corporation) for culture of testicular stromal cells, Leydig cell. Cells were pretreated with the hot water extract of Cordyceps militaris derived from Samia cynthia ricini (diluted to 1:500), or cordycepin known as one of the physiological activity substances of a vegetative wasp (0.5 mM) for 1 hour and then stimulated with a luteinizing hormone (LH: 10 and 100 ng/mL) or dibutyryl cAMP (0.1 and 0.5 mM). Ninety minutes after the stimulation, the media was collected and the content of testosterone was quantified. In order to confirm the reproducibility, the results of the reexamination performed with the same test content are shown in FIG. 13. In the reexamnination, three independent experiments were performed, and in addition to testosterone, dihydrotestosterone was also quantified.
smiles,measurement,setting,value
CCC(=O)O[C@H]1CC[C@H]2[C@@H]3CCC4=CC(=O)CC[C@]4(C)[C@H]3CC[C@]12C [testosterone propionate],body weight,"castrated rat; TP administered to castrated animals, FIG. 7",tended to increase
same,weight of the prostate,"castrated rat; TP group (1 mg/kg every other day) vs castrated, FIG. 5",increased
same,weight of the seminal vesicle,"castrated rat; TP group (1 mg/kg every other day) vs castrated, FIG. 6",increased
same,serum levels of testosterone,[1]; FIG. 8,increase
same,serum levels of dihydrotestosterone,[1]; FIG. 9,increase
same,prostatic weight,[1]; FIG. 10,increased
"Nc1ncnc2c1ncn2[C@@H]1O[C@H](CO)C[C@H]1O [Cordycepin, cordycepin]",stimulatory action on testosterone/dihydrotestosterone levels,testicular cells,No stimulatory action

# — US20260014219A1, “COMPOSITION FOR INHIBITING REDUCTION OF TESTOSTERONE AND/OR DIHYDROTESTOSTERONE” (priority 2019, published 2026)
